Results on 13 compounds are retold here after US20210038607A1, “OXADIAZOLYLTHIOPHENE DERIVATIVES USEFUL AS HISTONE DEACETYLASE INHIBITORS” (Karus Therapeutics Limited, priority 2018, published 2021).

By IC50 is commonly meant the midpoint of a concentration-inhibition curve. One may read the pEC50 as the negative decadic logarithm of the EC50, by convention in mol/L.

One test concerns the target T1, Human HDAC11 (Homo sapiens, UniProt Q96DB2).
T1 construct: Human HDAC11 (full length); His (N); host or cells: baculovirus expression system
T1 sequence (Q96DB2 1-347): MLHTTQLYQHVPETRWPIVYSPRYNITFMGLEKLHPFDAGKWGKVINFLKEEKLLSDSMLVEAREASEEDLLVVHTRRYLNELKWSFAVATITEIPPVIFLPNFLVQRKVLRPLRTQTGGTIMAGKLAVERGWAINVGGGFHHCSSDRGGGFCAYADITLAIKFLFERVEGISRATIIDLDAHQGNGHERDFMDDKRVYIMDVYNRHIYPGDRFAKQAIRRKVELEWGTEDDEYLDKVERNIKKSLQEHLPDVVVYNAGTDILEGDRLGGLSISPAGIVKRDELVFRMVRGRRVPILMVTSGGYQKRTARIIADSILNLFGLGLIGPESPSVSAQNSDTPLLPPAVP
Briefly: HDAC11 biochemical assay, class IIa-specific substrate. The conditions noted are these: read-out: HDAC Isoform IC50 (nM) 11. The method in brief: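 Full-length N-His human HDAC11 from baculovirus, 5 ng/μl, incubated with 50 μM Boc-Lys(trifluoroacetyl)-AMC for 30 min at 30 °C. Buffer: 50 mM Tris-HCl pH 8.0, 137 mM NaCl, 2.7 mM KCl, 1 mM MgCl2, 1 mg/mL BSA, 1% DMSO. Developer releases AMC; fluorescence read at 360/460 nm.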

The target in another test is T2, Human HDAC10 (Homo sapiens, UniProt Q969S8).
T2 construct: Human HDAC10 (a.a. 1-481); GST (N); His (C); host or cells: baculovirus expression system
T2 sequence (Q969S8 1-481): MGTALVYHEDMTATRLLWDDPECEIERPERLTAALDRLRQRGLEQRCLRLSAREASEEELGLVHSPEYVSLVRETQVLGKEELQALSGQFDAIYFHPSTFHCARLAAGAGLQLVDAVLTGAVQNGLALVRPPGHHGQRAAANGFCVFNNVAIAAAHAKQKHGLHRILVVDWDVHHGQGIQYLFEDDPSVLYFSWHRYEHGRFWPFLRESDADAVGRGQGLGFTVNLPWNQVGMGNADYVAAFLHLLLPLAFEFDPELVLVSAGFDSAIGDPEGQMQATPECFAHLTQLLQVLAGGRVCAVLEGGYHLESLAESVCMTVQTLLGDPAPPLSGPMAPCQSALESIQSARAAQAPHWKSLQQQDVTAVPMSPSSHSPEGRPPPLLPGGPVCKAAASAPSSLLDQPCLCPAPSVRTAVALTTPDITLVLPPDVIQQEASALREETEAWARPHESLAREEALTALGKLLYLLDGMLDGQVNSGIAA
Description: HDAC10 biochemical assay, AMC-labeled peptide substrate. The note with it: read-out: HDAC Isoform IC50 (nM) 10. The method in brief: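 Two-step fluorogenic read-out (Ex/Em 360/460) after developer digestion of deacetylated RHKK(Ac)AMC (50 μM). Deacetylation ran 2 h at 30 °C with 12 ng/ul HDAC10 (aa 1-481, GST/His tags, baculovirus) in Tris-HCl pH 8.0, BSA, 1% DMSO.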

In test [1] the test system is acetylated histone H3 in A549 lung adenocarcinoma cells. Description: Acetylated histone H3 in-cell western (ICW) assay. The note with it: Homo sapiens, 16 h exposure, relative to 40 μM Trichostatin A positive control, read-out: EC50 Ac-histone H3, A549 cells. It counts as cell-based. Here is the method:
Acetylated α-Tubulin and Histone H3 in-Cell Western (ICW) Assays
A549 cells were maintained in DMEM (Life Technologies)+10% FBS+2 mM glutamine & penicillin (10 μg/mL) and streptomycin ([…]. 10,000 A549 cells per well were plated into 96 well tissue culture plates (Corning) and incubated at 37° C. overnight in a humidified atmosphere containing 5% CO2 prior to addition of compounds. Compounds (dissolved in 100% DMSO) were diluted into cell culture media at 2× final assay concentration. 2× compound or DMSO (negative control) were added to cells (final DMSO concentration 0.4%). Untreated control wells received media. For acetylated α-tubulin assays, 40 μM scriptaid was used as a positive control. For acetylated histone H3 assays, 40 μM Trichostatin A (TSA) was used as a positive control. Cells were exposed to compound at 37° C. in a humidified atmosphere containing 5% CO2 for 16 h.
Measurement of the impact of compounds on levels of acetylated α-tubulin and histone H3 was performed using specific antibodies and near-infrared immunofluorescent dyes. Briefly, media was removed from wells of assay plates. Cells were washed once with PBS and fixed in 3.7% formaldehyde PBS solution at room temperature for 20 min. Cells were then permeabilised by washing 5 times in 0.1% triton-X-100 PBS at room temperature with gentle agitation for 5 min per wash. Non-specific antibody staining was blocked by the addition of Odyssey blocking buffer (Li-Cor) for 1.5 h at room temperature with gentle agitation. Cells were then incubated with primary antibody (mouse monoclonal anti-acetylated α-tubulin (clone 6-11B-1), Sigma or rabbit polyclonal anti-acetylated histone H3, Millipore) diluted in Odyssey blocking buffer at 4° C. with gentle shaking overnight (no antibody control and secondary antibody only wells were incubated with Odyssey blocking buffer only). Cells were washed five times with 0.1% tween PBS and labelled with secondary antibody (IR dye 800CW-conjugated goat anti mouse IgG or -goat anti rabbit IgG, Li-Cor) and cell stains Sapphire700 (Li-Cor) and Draq5 (Biostatus) diluted in Odyssey blocking buffer at room temperature in the dark with gentle shaking for 1 h (no antibody control wells were incubated with Odyssey blocking buffer only and secondary antibody only with diluted secondary antibody but no cell stains). Cells were washed with 0.1% Tween PBS five times and scanned using a Li-Cor Odyssey SA plate reader in 700 and 800 nm channels. Acetylated α-tubulin or histone H3 signal was normalised to cell number using the cell stain signal. Percentage increase in acetylated α-tubulin or histone H3 after compound treatment over the mean of DMSO treated controls, relative to scriptaid and TSA positive controls, respectively was calculated. EC50 values were calculated using GraphPad Prism software and nonlinear regression with 0% bottom and 100% top constraints.

pEC50: −log10 of the molar value.

Regarding `O=C(c1ccc(N(Cc2ccc(-c3noc(C(F)(F)F)n3)s2)c2cnccn2)nn1)N1CC(O)(C(F)(F)F)C1` [Example FK, 1-{6-[(Pyrazin-2-yl)({5-[5-(trifluoromethyl)-1,2,4-oxadiazol-3-yl]thiophen-2-yl}methyl)amino]pyridazine-3-carbonyl}-3-(trifluoromethyl)azetidin-3-ol], the IC50 on Human HDAC11 and at Human HDAC10 was over 10000 nM each time. For the same compound, the pEC50 in test [1] was at most 5.00.
`FC(F)(F)c1nc(-c2ccc(CN(c3cnccn3)c3ccc(CN4CCOCC4)nn3)s2)no1` [Example FN, 6-[(Morpholin-4-yl)methyl]-N-(pyrazin-2-yl)-N-({5-[5-(trifluoromethyl)-1,2,4-oxadiazol-3-yl]thiophen-2-yl}methyl)pyridazin-3-amine]: the IC50 on Human HDAC11 and on Human HDAC10 was over 10000 nM each time. The pEC50 in test [1] is at most 5.00.
For `[O-][S+]1CCN(Cc2ccc(N(Cc3ccc(-c4noc(C(F)(F)F)n4)s3)c3cnccn3)nn2)CC1` [Example FO, 4-({6-[(Pyrazin-2-yl)({5-[5-(trifluoromethyl)-1,2,4-oxadiazol-3-yl]thiophen-2-yl}methyl)amino]pyridazin-3-yl}methyl)-1lambda4-thiomorpholin-1-one], the IC50 at Human HDAC11 and at Human HDAC10 was over 10000 nM throughout. Moreover, the negative logarithm of the EC50 (pEC50) in test [1] was at most 5.00.
In the case of `O=C(c1cnnc(N(Cc2ccc(-c3noc(C(F)(F)F)n3)s2)c2cnccn2)c1)N1CCC1` [Example FS, 5-(Azetidine-1-carbonyl)-N-(pyrazin-2-yl)-N-({5-[5-(trifluoromethyl)-1,2,4-oxadiazol-3-yl]thiophen-2-yl}methyl)pyridazin-3-amine], the IC50 at Human HDAC11 and at Human HDAC10 was over 10000 nM throughout. In test [1], the pEC50 is at most 5.00.
With `O=C(c1cnnc(N(Cc2ccc(-c3noc(C(F)(F)F)n3)s2)c2cnccn2)c1)N1CC[S+]([O-])CC1` [Example FU, 4-{6-[(Pyrazin-2-yl)({5-[5-(trifluoromethyl)-1,2,4-oxadiazol-3-yl]thiophen-2-yl}methyl)amino]pyridazine-4-carbonyl}-1lambda4-thiomorpholin-1-one], the IC50 at Human HDAC11 and at Human HDAC10 was over 10000 nM in each case. The pEC50 in test [1] was at most 5.00.
For `O=C(c1cnnc(N(Cc2ccc(-c3noc(C(F)(F)F)n3)s2)c2cnccn2)c1)N1C[C@@H]2C[C@H]1CO2` [Example FV, 5-[(1S,4S)-2-Oxa-5-azabicyclo[2.2.1]heptane-5-carbonyl]-N-(pyrazin-2-yl)-N-({5-[5-(trifluoromethyl)-1,2,4-oxadiazol-3-yl]thiophen-2-yl}methyl)pyridazin-3-amine], the IC50 at Human HDAC11 and on Human HDAC10 was over 10000 nM throughout. For the same compound, in test [1], the pEC50 was at most 5.00.
As for `O=C(c1cnnc(N(Cc2ccc(-c3noc(C(F)(F)F)n3)s2)c2cnccn2)c1)N1C[C@H]2C[C@@H]1CO2` [Example FW, 5-[(1R,4R)-2-Oxa-5-azabicyclo[2.2.1]heptane-5-carbonyl]-N-(pyrazin-2-yl)-N-({5-[5-(trifluoromethyl)-1,2,4-oxadiazol-3-yl]thiophen-2-yl}methyl)pyridazin-3-amine], the IC50 at Human HDAC11 and at Human HDAC10 was over 10000 nM in each case. In addition, the pEC50 in test [1] was at most 5.00.
As to `CN(C)C1CN(C(=O)c2cnnc(N(Cc3ccc(-c4noc(C(F)(F)F)n4)s3)c3cnccn3)c2)C1` [Example FX, 5-[3-(Dimethylamino)azetidine-1-carbonyl]-N-(pyrazin-2-yl)-N-({5-[5-(trifluoromethyl)-1,2,4-oxadiazol-3-yl]thiophen-2-yl}methyl)pyridazin-3-amine], the IC50 at Human HDAC11 and at Human HDAC10 was over 10000 nM in each case. The pEC50 in test [1] was at most 5.00.
Consider `O=C(c1cnnc(N(Cc2ccc(-c3noc(C(F)(F)F)n3)s2)c2cnccn2)c1)N1CCC12COC2` [Example GF, 5-{6-Oxa-1-azaspiro[3.3]heptane-1-carbonyl}-N-(pyrazin-2-yl)-N-({5-[5-(trifluoromethyl)-1,2,4-oxadiazol-3-yl]thiophen-2-yl}methyl)pyridazin-3-amine], for which the IC50 on Human HDAC11 and at Human HDAC10 was over 10000 nM throughout. Also, the pEC50 in test [1] is at most 5.00.
On to `COC1CN(Cc2ccnc(N(Cc3ccc(-c4noc(C(F)(F)F)n4)s3)c3cnccn3)c2)C1` [Example GH, N-{4-[(3-Methoxyazetidin-1-yl)methyl]pyridin-2-yl}-N-({5-[5-(trifluoromethyl)-1,2,4-oxadiazol-3-yl]thiophen-2-yl}methyl)pyrazin-2-amine], for which the IC50 on Human HDAC11 and on Human HDAC10 was over 10000 nM throughout. In addition, the pEC50 in test [1] was at most 5.00.
`FC(F)(F)c1nc(-c2ccc(CN(c3cnccn3)c3cc(CN4CCOCC4)ccn3)s2)no1` [Example GI, N-{4-[(Morpholin-4-yl)methyl]pyridin-2-yl}-N-({5-[5-(trifluoromethyl)-1,2,4-oxadiazol-3-yl]thiophen-2-yl}methyl)pyrazin-2-amine]: the IC50 at Human HDAC11 and on Human HDAC10 was over 10000 nM in each case. Besides, the negative-log EC50 (pEC50) in test [1] is at most 5.00.
With `O=C(c1cnnc(N(Cc2ccc(-c3noc(C(F)(F)F)n3)s2)c2cnccn2)c1)N1CC(C(F)(F)F)C1` [Example GJ, N-(Pyrazin-2-yl)-N-({5-[5-(trifluoromethyl)-1,2,4-oxadiazol-3-yl]thiophen-2-yl}methyl)-5-[3-(trifluoromethyl)azetidine-1-carbonyl]pyridazin-3-amine], the IC50 on Human HDAC11 and at Human HDAC10 was over 10000 nM in each case. The pEC50 in test [1] was at most 5.00.
In the case of `O=C(c1cnnc(N(Cc2ccc(-c3noc(C(F)(F)F)n3)s2)c2cnccn2)c1)N1CC(C(F)F)C1` [Example GK, 5-[3-(Difluoromethyl)azetidine-1-carbonyl]-N-(pyrazin-2-yl)-N-({5-[5-(trifluoromethyl)-1,2,4-oxadiazol-3-yl]thiophen-2-yl}methyl)pyridazin-3-amine], the IC50 on Human HDAC11 and on Human HDAC10 was over 10000 nM throughout. In test [1], the pEC50 was at most 5.00.
